Laboratory results reported in patent US20240034737A1, “Heterocyclic Derivatives as P2X7 Receptor Antagonists” (BREYE THERAPEUTICS APS, priority 2020, published 2024).
pIC50: −log10 of the molar value.

Assays:
CYP4503A4 = CYP4503A4 metabolic induction (mRNA expression) in human cryopreserved platable hepatocytes; type: in vitro ADME; details: 10 μM test compound, two days treatment, mRNA by QuantiGene Plex 2.0
Procedure: In Vitro Evaluation of Test Compounds for CYP4503A4 Metabolic Induction Using Human Liver Hepatocytes.
CYP induction assessment was performed using human cryopreserved platable hepatocytes. Test compound was assessed at three or six different concentrations in duplicate.
A sandwich culture of platable cryopreserved hepatocytes was used with one day recovery period after plating. Assessment of cell morphology and confluency was performed using a phase-contrast microscope for representative wells.
The plated hepatocyte cell monolayers were treated with test compound, negative and positive controls for two days changing medium every 24 hours. On the fourth day, assessment of cell morphology and confluency was repeated to ensure cell monolayer integrity. Assessment of cell morphology and confluency was performed using a phase-contrast microscope for representative wells.
Cell monolayers were assessed for test compound cytotoxicity by an adenosine triphosphate (ATP) content assay in a separate plate.
Expression levels of mRNA for CYP1A2, CYP2B6, and CYP3A4 were evaluated by the QuantiGene® Plex 2.0 methodology.

P2X7 receptor = P2X7 receptor (Homo sapiens (Human), UniProt Q99572); assay: Human P2X7 channel calcium-influx assay (Fluo-8 NW, FLIPR TETRA, Bz-ATP stimulation); type: cell-based; details: HEK-293 cells stably transfected with P2X7 receptor, Low Divalent Cation Assay Buffer, read-out: hP2X7 IC50
Summary of the method: (§1)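 HEK-293 cells stably expressing human or mouse P2X7, preloaded with Fluo-8 NW dye for 1 h at RT. Compounds added, Bz-ATP-evoked Ca2+ influx followed as fluorescence kinetics over 5 min on FLIPR TETRA; A438079 served as reference antagonist.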

mP2X7 = mP2X7 (Mus musculus (Mouse), UniProt Q9Z1M0); assay: mP2X7 channel calcium-influx assay (Fluo-8 NW, FLIPR TETRA, Bz-ATP stimulation); type: cell-based
Summary of the method: as §1

Chain of mP2X7 (Q9Z1M0 whole entry): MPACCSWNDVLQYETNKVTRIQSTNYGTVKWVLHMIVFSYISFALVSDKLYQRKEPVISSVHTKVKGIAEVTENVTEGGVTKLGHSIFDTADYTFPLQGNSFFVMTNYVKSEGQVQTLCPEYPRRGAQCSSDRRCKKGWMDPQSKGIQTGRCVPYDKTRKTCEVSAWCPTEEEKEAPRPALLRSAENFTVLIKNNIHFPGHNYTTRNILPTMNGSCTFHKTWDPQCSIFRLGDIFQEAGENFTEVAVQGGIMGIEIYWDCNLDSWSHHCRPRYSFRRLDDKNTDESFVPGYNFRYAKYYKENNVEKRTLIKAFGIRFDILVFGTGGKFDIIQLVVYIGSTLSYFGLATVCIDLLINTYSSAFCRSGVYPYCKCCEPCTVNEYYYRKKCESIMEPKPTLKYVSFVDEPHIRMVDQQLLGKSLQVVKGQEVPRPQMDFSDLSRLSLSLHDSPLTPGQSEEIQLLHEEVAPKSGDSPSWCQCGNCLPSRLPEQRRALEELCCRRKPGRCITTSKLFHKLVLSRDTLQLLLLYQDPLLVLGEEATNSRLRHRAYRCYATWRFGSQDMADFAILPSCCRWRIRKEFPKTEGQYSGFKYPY
Chain of P2X7 receptor (Q99572 whole entry): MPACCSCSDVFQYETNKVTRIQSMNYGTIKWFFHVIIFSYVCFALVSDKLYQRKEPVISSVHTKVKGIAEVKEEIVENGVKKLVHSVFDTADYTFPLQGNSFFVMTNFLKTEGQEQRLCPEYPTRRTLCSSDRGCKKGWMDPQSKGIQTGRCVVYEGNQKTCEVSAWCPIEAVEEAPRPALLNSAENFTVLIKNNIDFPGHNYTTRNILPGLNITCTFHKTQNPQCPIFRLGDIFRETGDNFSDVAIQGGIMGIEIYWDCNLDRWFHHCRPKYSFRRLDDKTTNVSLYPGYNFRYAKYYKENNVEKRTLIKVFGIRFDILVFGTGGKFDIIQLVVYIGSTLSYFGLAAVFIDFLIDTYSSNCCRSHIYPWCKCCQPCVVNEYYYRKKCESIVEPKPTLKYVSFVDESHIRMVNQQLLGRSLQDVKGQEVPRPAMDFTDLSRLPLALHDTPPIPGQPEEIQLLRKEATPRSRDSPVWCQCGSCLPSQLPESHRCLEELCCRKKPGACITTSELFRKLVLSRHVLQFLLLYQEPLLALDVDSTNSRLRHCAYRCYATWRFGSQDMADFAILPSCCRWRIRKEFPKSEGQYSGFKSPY

CYP4503A4 mRNA fold increase at 10 μM (CYP4503A4) [fold] | pIC50 (P2X7 receptor) | pIC50 (mP2X7) | Structure (SMILES)
3.9 | 7.06 | 7.12 | Cc1ccc(OCC2CCN(C(CNC(=O)c3c(F)cccc3Cl)c3scnc3C(F)F)CC2)nn1 (stereo not drawn) [Example 101, 2-Chloro-N-{2-[4-(difluoromethyl)-1,3-thiazol-5-yl]-2-(4-{[(6-methylpyridazin-3-yl)oxy]methyl}piperidin-1-yl)ethyl}-6-fluorobenzamide]
6.9 | 7.74 | 7.73 | O=C(NCC(c1scnc1C(F)F)N1CCC(COc2cccc(F)n2)CC1)c1c(F)cccc1Cl (stereo not drawn) [Example 124, 2-Chloro-N-{2-[4-(difluoromethyl)-1,3-thiazol-5-yl]-2-(4-{[(6-fluoropyridin-2-yl)oxy]methyl}piperidin-1-yl)ethyl}-6-fluorobenzamide]
6.0 | 7.67 | 7.09 | O=C(NCC(c1scnc1C(F)F)N1CCC(Oc2ccc(F)nn2)CC1)c1c(F)cccc1Cl (stereo not drawn) [Example 32, 2-Chloro-N-{2-[4-(difluoromethyl)-1,3-thiazol-5-yl]-2-{4-[(6-fluoropyridazin-3-yl)oxy]piperidin-1-yl}ethyl}-6-fluorobenzamide]
4.5 | 6.58 | 6.18 | O=C(NCC(c1scnc1C(F)F)N1CCC(Oc2nccn3cnnc23)CC1)c1c(F)cccc1Cl (stereo not drawn) [Example 46, 2-Chloro-N-{2-[4-(difluoromethyl)-1,3-thiazol-5-yl]-2-(4-{[1,2,4]triazolo[4,3-a]pyrazin-8-yloxy}piperidin-1-yl)ethyl}-6-fluorobenzamide]
4.9 | 7.25 | 7.02 | COc1cc(OC2CCN(C(CNC(=O)c3c(F)cccc3Cl)c3scnc3C(F)F)CC2)ncn1 (stereo not drawn) [Example 65, 2-Chloro-N-{2-[4-(difluoromethyl)-1,3-thiazol-5-yl]-2-{4-[(6-methoxypyrimidin-4-yl)oxy]piperidin-1-yl}ethyl}-6-fluorobenzamide]
2.2 | 7.27 | 7.09 | O=C(NCC(c1scnc1C(F)F)N1CCC(Oc2nccc(Cl)n2)CC1)c1c(F)cccc1Cl (stereo not drawn) [Example 75, 2-chloro-N-(2-{4-[(4-chloropyrimidin-2-yl)oxy]piperidin-1-yl}-2-[4-(difluoromethyl)-1,3-thiazol-5-yl]ethyl)-6-fluorobenzamide]
2.2 | 7.32 | 6.77 | Cc1cc(COC2CCN(C(CNC(=O)c3c(F)cccc3Cl)c3scnc3C(F)F)CC2)no1 (stereo not drawn) [Example 8, 2-chloro-N-{2-[4-(difluoromethyl)-1,3-thiazol-5-yl]-2-{4-[(5-methyl-1,2-oxazol-3-yl)methoxy]piperidin-1-yl}ethyl}-6-fluorobenzamide]
3.6 | 7.14 | 6.74 | O=C(NCC(c1scnc1C(F)F)N1CCC(Oc2ccncn2)CC1)c1c(F)cccc1Cl (stereo not drawn) [Example 78, 2-Chloro-N-{2-[4-(difluoromethyl)-1,3-thiazol-5-yl]-2-[4-(pyrimidin-4-yloxy)piperidin-1-yl]ethyl}-6-fluorobenzamide]
5.5 | 7.79 | 7.64 | O=C(NCC(c1scnc1C(F)F)N1CCC(COc2ccnc(F)c2)CC1)c1c(F)cccc1Cl (stereo not drawn) [Example 125, 2-Chloro-N-{2-[4-(difluoromethyl)-1,3-thiazol-5-yl]-2-(4-{[(2-fluoropyridin-4-yl)oxy]methyl}piperidin-1-yl)ethyl}-6-fluorobenzamide]
6.5 | 7.36 | 7.64 | O=C(NCC(c1scnc1C(F)F)N1CCC(COc2nc3ccccc3s2)CC1)c1c(F)cccc1Cl (stereo not drawn) [Example 93, N-(2-{4-[(1,3-Benzothiazol-2-yloxy)methyl]piperidin-1-yl}-2-[4-(difluoromethyl)-1,3-thiazol-5-yl]ethyl)-2-chloro-6-fluorobenzamide]
6.3 | 7.31 | 7.21 | N#Cc1cc(OC2CCN(C(CNC(=O)c3c(F)cccc3Cl)c3scnc3C(F)F)CC2)ccn1 (stereo not drawn) [Example 127, 2-Chloro-N-(2-{4-[(2-cyanopyridin-4-yl)oxy]piperidin-1-yl}-2-[4-(difluoromethyl)-1,3-thiazol-5-yl]ethyl)-6-fluorobenzamide]
5.0 | 7.63 | 7.57 | O=C(NCC(c1scnc1C(F)F)N1CCC(Oc2cncc(F)c2)CC1)c1c(F)cccc1Cl (stereo not drawn) [Example 5, 2-chloro-N-{2-[4-(difluoromethyl)-1,3-thiazol-5-yl]-2-{4-[(5-fluoropyridin-3-yl)oxy]piperidin-1-yl}ethyl}-6-fluorobenzamide]
4.9 | 7.40 | 7.52 | O=C(NCC(c1scnc1C(F)F)N1CCC(COc2nccnc2F)CC1)c1c(F)cccc1Cl (stereo not drawn) [Example 106, 2-Chloro-N-{2-[4-(difluoromethyl)-1,3-thiazol-5-yl]-2-(4-{[(3-fluoropyrazin-2-yl)oxy]methyl}piperidin-1-yl)ethyl}-6-fluorobenzamide]
6.4 | 7.43 | 7.52 | O=C(NCC(c1scnc1C(F)F)N1CCC(COc2nc(C3CC3)ns2)CC1)c1c(F)cccc1Cl (stereo not drawn) [Example 87, 2-Chloro-N-[2-(4-{[(3-cyclopropyl-1,2,4-thiadiazol-5-yl)oxy]methyl}piperidin-1-yl)-2-[4-(difluoromethyl)-1,3-thiazol-5-yl]ethyl]-6-fluorobenzamide]
2.6 | 7.19 | 7.27 | Cc1noc(C)c1COC1CCN(C(CNC(=O)c2c(F)cccc2Cl)c2scnc2C(F)F)CC1 (stereo not drawn) [Example 9, 2-chloro-N-{2-[4-(difluoromethyl)-1,3-thiazol-5-yl]-2-{4-[(dimethyl-1,2-oxazol-4-yl)methoxy]piperidin-1-yl}ethyl}-6-fluorobenzamide]
4.4 | 7.42 | 7.09 | O=C(NCC(c1scnc1C(F)F)N1CCC(Oc2ccncc2)CC1)c1c(F)cccc1Cl (stereo not drawn) [Example 3, 2-chloro-N-{2-[4-(difluoromethyl)-1,3-thiazol-5-yl]-2-[4-(pyridin-4-yloxy)piperidin-1-yl]ethyl}-6-fluorobenzamide]
4.8 | 7.44 | 7.43 | O=C(NCC(c1scnc1C(F)F)N1CCC(Oc2cccnc2)CC1)c1c(F)cccc1Cl (stereo not drawn) [Example 2, 2-chloro-N-{2-[4-(difluoromethyl)-1,3-thiazol-5-yl]-2-[4-(pyridin-3-yloxy)piperidin-1-yl]ethyl}-6-fluorobenzamide]
2.4 | 7.19 | 7.15 | Cc1cc(OC2CCN(C(CNC(=O)c3c(F)cccc3Cl)c3scnc3C(F)F)CC2)ccn1 (stereo not drawn) [Example 73, 2-Chloro-N-{2-[4-(difluoromethyl)-1,3-thiazol-5-yl]-2-{4-[(2-methylpyridin-4-yl)oxy]piperidin-1-yl}ethyl}-6-fluorobenzamide]
5.0 | 7.68 | 7.47 | O=C(NCC(c1scnc1C(F)F)N1CCC(COc2cc(F)ncn2)CC1)c1c(F)cccc1Cl (stereo not drawn) [Example 103, 2-Chloro-N-{2-[4-(difluoromethyl)-1,3-thiazol-5-yl]-2-(4-{[(6-fluoropyrimidin-4-yl)oxy]methyl}piperidin-1-yl)ethyl}-6-fluorobenzamide]
7.6 | 7.13 | 7.44 | O=C(NCC(c1scnc1C(F)F)N1CCC(Oc2ccnc3cccnc23)CC1)c1c(F)cccc1Cl (stereo not drawn) [Example 48, 2-Chloro-N-{2-[4-(difluoromethyl)-1,3-thiazol-5-yl]-2-[4-(1,5-naphthyridin-4-yloxy)piperidin-1-yl]ethyl}-6-fluorobenzamide]
5.6 | 7.49 | 7.54 | O=C(NCC(c1scnc1C(F)F)N1CCC(Oc2ncccc2F)CC1)c1c(F)cccc1Cl (stereo not drawn) [Example 7, 2-chloro-N-{2-[4-(difluoromethyl)-1,3-thiazol-5-yl]-2-{4-[(3-fluoropyridin-2-yl)oxy]piperidin-1-yl}ethyl}-6-fluorobenzamide]
7.4 | 7.40 | 7.41 | N#Cc1cncc(OCC2CCN(C(CNC(=O)c3c(F)cccc3Cl)c3scnc3C(F)F)CC2)c1 (stereo not drawn) [Example 91, 2-Chloro-N-[2-(4-{[(5-cyanopyridin-3-yl)oxy]methyl}piperidin-1-yl)-2-[4-(difluoromethyl)-1,3-thiazol-5-yl]ethyl]-6-fluorobenzamide]
9.8 | 7.55 | 7.95 | O=C(NCC(c1scnc1C(F)F)N1CCC(COc2nccn3nccc23)CC1)c1c(F)cccc1Cl (stereo not drawn) [Example 116, 2-Chloro-N-{2-[4-(difluoromethyl)-1,3-thiazol-5-yl]-2-[4-({pyrazolo[1,5-a]pyrazin-4-yloxy}methyl)piperidin-1-yl]ethyl}-6-fluorobenzamide]
